# Read-outs that look alike come from different tables or passages of the source.
# Assays:
# [1] = tested on: PGE2 production; assay: Inhibition of PGE2 formation in LPS-stimulated RAW 264.7 macrophages (EIA); format: cell-based, murine; details: Mus musculus, read-out: PGE2 Production by RAW Cells IC50
# Experimental: (§1) The anti-inflammatory effects of the compounds were evaluated in activated macrophages by determining the inhibition of the synthesis of nitric oxide and/or PGE2. In order to induce an in vitro “inflammatory response”, murine macrophages RAW264.7 were stimulated with lipopolysaccharide (LPS) without or with graded amounts of the test substances. Murine macrophages RAW 264.7 cells respond to LPS-stimulation by the release of substantial amounts of Prostaglandin E2 (PGE2) and nitric oxide (NO), which is impaired by anti-inflammatory compounds. Prostaglandins PGE2 play a critical role in the inflammation process, while nitric oxide is a hallmark of inflammation in conditions like arthritis. Therefore, we evaluated the effect of the compounds on PGE2 and NO production.
# RAW 264.7 cells: were cultured in Dulbecco's Modified eagle Medium (DMEM) supplemented with 10% fetal calf serum (FCS), 50 units/ml penicillin, 50 μg/ml streptomycin, L-glutamine and nonessential amino acids (NEM, Life Technologies, No. 11140). RAW cells were used between passage 10 and 50. For the experiments, cells were seeded into 6-well, 12-well or 96-well plates at 2, 1 and 0.05 mio cells per well, respectively, and used after 1 or 2 days of pre-culture. Cells were starved in complete DMEM medium containing 0.25% FCS 18 hours before the treatment. Cells were stimulated with LPS (1 μg/ml) for 24 hours in phenol-free DMEM containing 0.25% FCS. Substances to be tested were dissolved in DMSO (usually at 10 mM) and added to the culture medium concomitantly with the stimulus. […] After 24 hours nitrite concentrations were measured in culture supernatants by the Griess reaction and secreted PGE2 was determined by Enzyme immunoassay (EIA) in unstimulated and LPS-stimulated RAW264.7 cells. The compounds were simultaneously tested at different concentrations to obtain a dose response curve. […] The effects of compounds of the formula (I) on PGE2 production was also measured in the murine macrophage cell line RAW 264.7 (Table 1).
# [2] = tested on: adhesion of U937 to human umbilical cord endothelial cells (HUVEC); assay: Adhesion of U937 monocytes to TNF-α stimulated HUVEC; format: cell-based; details: 20 hours stimulation
# Experimental: (§2) Artherosclerotic lesions can develop as a consequence of endothelial dysfunction. This is reflected by altered i.e. increased adhesion of monocytes to endothelial layers. We evaluated the effect of ligustilide on adhesion of U937, a monocyte cell line, to human umbilical cord endothelial cells (HUVEC). HUVEC were stimulated with TNF-α in the absence or presence of ligustilide (25 or 50 μmol/L) for 20 hours and the adhesion of U937 was determined according to Carluccio et al. (Arterioscler Thromb Vasc Biol 2003; 23, 622-629). […] Adhesion of monocytes to endothelial layers is mediated by the expression of intercellular adhesion molecule 1 (ICAM-1). Therefore, we further analyzed the effects of ligustilide on the level of ICAM-1 mRNA in HUVEC by quantitative RT-PCR.
# [3] = tested on: nitric oxide (NO) production; assay: Inhibition of nitric oxide production in LPS-stimulated RAW264.7 macrophages (Griess reaction); format: cell-based, murine; details: Mus musculus; RAW264.7, LPS 1 μg/ml, 24 hours
# Experimental: as §1
# RAW 264.7 cells: were cultured in Dulbecco's Modified eagle Medium (DMEM) supplemented with 10% fetal calf serum (FCS), 50 units/ml penicillin, 50 μg/ml streptomycin, L-glutamine and nonessential amino acids (NEM, Life Technologies, No. 11140). […] After 24 hours nitrite concentrations were measured in culture supernatants by the Griess reaction and secreted PGE2 was determined by Enzyme immunoassay (EIA) in unstimulated and LPS-stimulated RAW264.7 cells. […] The effects of compounds of the formula (I) on PGE2 production was also measured in the murine macrophage cell line RAW 264.7 (Table 1).
# [4] = tested on: kaolin-induced arthritis; assay: Kaolin-induced arthritis in rats, gait score; format: in vivo; details: rat, 100 mg/kg oral; for Gait score: score from 0 to 3, mean of 10; for % improvement of gait score: vs control
# Experimental: Twenty male Sprague Dawley rats weighing 103 g to 132 g, were included in this study. They were housed in a temperature (19.5-24.5° C.) and relative humidity (45-65%) controlled room with a 12-h light/dark cycle, with ad libitum access to filtered tap-water and standard pelleted laboratory chow, throughout the study. Upon receipt at animal facilities, they were housed 5 per cage and at least a 5-day acclimatization period were observed before any testing. Animals were individually identified on the tail. Arthritis is induced by injection of a 10% kaolin suspension into the knee joint of the rat right hindpaw. In the vehicle-treated group, injection of kaolin suspension into the knee joint of the rat right hindpaw induced an impairment of the gait, evaluated by an increase of the gait score (score from 0 to 3). Gait of animals is used to measure the spontaneous painful behavior. Ligustilide (100 mg/kg) suspended in 1% methylcellulose (in a volume of 10 ml/kg) or vehicle alone were administered by oral route in a coded and random order, 30 min after kaolin injection. The assessment of score behavior was monitored every hour from 1.5 hours to 5.5 hours following drug dosing. The mean gait score was calculated from individual values at each time. The percentage of inhibition of the mean gait score as compared to the mean value of the control group was calculated 1.5, 2.5, 3.5, 4.5 hours and 5.5 hours after dosing.
# The results are expressed for each group as the mean of the gait scores of 10 animals per group.
# [5] = tested on: intercellular adhesion molecule 1 (ICAM-1) mRNA; assay: ICAM-1 mRNA level in TNF-α stimulated HUVEC, quantitative RT-PCR; format: cell-based, human; details: 2 hours of stimulation
# Experimental: as §2
# [6] = tested on: IL-1α; assay: Gene expression in LPS-stimulated THP-1 cells, quantitative RT-PCR; format: cell-based, human; details: THP-1, ligustilide 25 μM, LPS 1 μg/ml, 4 hours
# Experimental: (§3) THP-1 cells, a human monocyte/histiocyte cell line, were cultured in RPMI 1640 medium supplemented with 10% FCS, 50 units/ml penicillin, […] streptomycin, NEM and 2×10^−5 M β-mercaptoethanol. Cells were treated with 50 nM phorbol myristate acetate for 3 days. Cells were starved overnight in medium containing 0.25% FCS before being treated. Cells were stimulated with LPS (1 μg/ml) for 4 hours in phenol-free RPMI containing 0.25% FCS. Ligustilide (25 μM) was added to the culture medium concomitantly with the stimulus. […] LPS-stimulation induces the expression of a large variety of genes including those of inflammatory pathways. After 4 hours of stimulation we have evaluated the impact of ligustilide on the expression of inflammatory genes using quantitative real-time RT-PCR (reverse transcriptase polymerase chain reaction) technology (Table 2).
# [7] = tested on: TNF-α; assay: as above; format: cell-based, human; details: THP-1, ligustilide 25 μM, LPS 1 μg/ml, 4 hours
# Experimental: as §3
# [8] = tested on: COX-2; assay: as above; format: cell-based, human; details: THP-1, ligustilide 25 μM, LPS 1 μg/ml, 4 hours
# Experimental: as §3
# [9] = tested on: MIP-2; assay: as above; format: cell-based, human; details: THP-1, ligustilide 25 μM, LPS 1 μg/ml, 4 hours
# Experimental: as §3
# [10] = tested on: IL-6; assay: as above; format: cell-based, human; details: THP-1, ligustilide 25 μM, LPS 1 μg/ml, 4 hours
# Experimental: as §3
# [11] = tested on: MIP-3α; assay: as above; format: cell-based, human; details: THP-1, ligustilide 25 μM, LPS 1 μg/ml, 4 hours
# Experimental: as §3
# [12] = tested on: IL-8; assay: as above; format: cell-based, human; details: THP-1, ligustilide 25 μM, LPS 1 μg/ml, 4 hours
# Experimental: as §3
# [13] = tested on: Collagen 1; assay: Gene expression in IL-1β activated chondrocytes, RT-PCR; format: cell-based; details: 4 hours, SW1353 or normal human chondrocytes, concentration not given
# Experimental: (§4) Articulate tissues i.e. joints contain chondrocytes. Their physiological deterioration leads to the erosion of joint tissue components and thus to e.g. osteoarthritis. We have evaluated the effect of ligustilide on catabolic events in chondrocytes. SW1353 chondrosarcoma cells or normal human chondrocytes (derived from knee) were activated with interleukin-1β in the presence of graded amount of test compounds for 4 hours. RNA was then extracted from these cells and reverse-transcribed. Expression of marker genes for catabolic events like matrix metalloproteinases (MMPs) was determined by quantitative real time polymerase chain reaction (RT-PCR). As shown in Table 5 ligustilide influenced the expression level of several MMPs, which are critically involved in the destruction of extracellular matrix. Ligustilide reduced its expression and thus is supposed to prevent tissue erosion in osteoarthritic diseases.
# [14] = tested on: MMP-13; assay: as above; format: cell-based; details: 4 hours, SW1353 or normal human chondrocytes, concentration not given
# Experimental: as §4
# [15] = tested on: Collagen 2; assay: as above; format: cell-based; details: 4 hours, SW1353 or normal human chondrocytes, concentration not given
# Experimental: as §4
# [16] = tested on: MMP-3; assay: as above; format: cell-based; details: 4 hours, SW1353 or normal human chondrocytes, concentration not given
# Experimental: as §4
# [17] = tested on: MMP-9; assay: as above; format: cell-based; details: 4 hours, SW1353 or normal human chondrocytes, concentration not given
# Experimental: as §4
# [18] = tested on: MMP-1; assay: as above; format: cell-based; details: 4 hours, SW1353 or normal human chondrocytes, concentration not given
# Experimental: as §4
# [19] = tested on: carrageenan-induced paw edema; assay: Carrageenan-induced paw edema in rats; format: in vivo; details: rat, 100 mg/kg oral; for Paw edema volume: mean of 10
# Experimental: The anti-inflammatory activity of the compounds was evaluated in vivo in the carrageenan-induced paw edema rat model. This model has long been used to assess the anti-inflammatory properties of agents that inhibit prostaglandins, such as nonsteroidal anti-inflammatory drugs (NSAIDs) The model causes time-dependent edema formation following carrageenan administration into the sub-plantar surface of a rat paw. Twenty male Sprague-Dawley rats weighing 130 to 146 g were randomized in two groups. They were housed in a temperature (19.5-24.5° C.) and relative humidity (45-65%) controlled room with a 12-h light/dark cycle, with ad libitum access to filtered tap-water and standard pelleted laboratory chow throughout the study. They were housed 5 per cage and a 5-6-day acclimatization period was observed before any testing. Animals were individually identified on the tail. Ligustilide (100 mg/kg) suspended in 1% methylcellulose (in a volume of 10 mL/kg) or vehicle alone were administered by the oral route in a coded and random order after an overnight fast. One hour later, inflammation is induced by subplantar injection of a 2% carrageenan suspension into the right paw. The paw volume of each rat was measured in mL at the following time points: 0 h, 1.5 h, 3 h, and 4.5 h after the injection of carrageenan. The paw edema volume of each rat at each time point was expressed as the change from initial value. The anti-inflammatory effect on edema volume in treated-groups was expressed as % inhibition [(mean of vehicle-treated group paw edema volume−mean of the treated group paw edema volume)/mean of vehicle-treated group paw edema volume)×100]. All data of paw edema volume are expressed in mL as Mean of 10 rats in each group.
# [20] = RAW264.7, RAW 264.7, LPS 1 μg/ml, 24 hours
smiles,measurement,setting,value
"CCCC[C@@H]1OC(=O)c2ccccc21 [3-Butylphthalide, 3S-Butylphthalide]",IC50,[1]; [20],3 µM
CCC/C=C1\OC(=O)C2=C1CCC=C2 [Ligustilide],% reduction of adherence,[2]; TNF-α + 25 μM ligustilide,39%
same,Number of adherent cells,[2]; TNF-α + 25 μM ligustilide,61 ± 25
same,% reduction of adherence,[2]; TNF-α + 50 μM ligustilide,73%
same,Number of adherent cells,[2]; TNF-α + 50 μM ligustilide,27 ± 21
same,IC50,[3],12.2 ± 3.1 µM
same,Gait score,[4]; 1.5 hours after dosing,0.3
same,% improvement of gait score,[4]; 1.5 hours after dosing,25%
same,Gait score,[4]; 2.5 hours after dosing,0.4
same,% improvement of gait score,[4]; 2.5 hours after dosing,43%
same,Gait score,[4]; 3.5 hours after dosing,0.6
same,% improvement of gait score,[4]; 3.5 hours after dosing,50%
same,Gait score,[4]; 4.5 hours after dosing,0.9
same,% improvement of gait score,[4]; 4.5 hours after dosing,53%
same,Gait score,[4]; 5.5 hours after dosing,1.3
same,% improvement of gait score,[4]; 5.5 hours after dosing,38%
same,Analgesic effect in comparison to the control group,"[4]; at 3.5, 4.5 and 5.5 hours after dosing",significant analgesic effect
same,% reduction of expression (ICAM-1 mRNA),[5]; TNF-α + 25 μM ligustilide,58%
same,Relative ICAM-1 mRNA level,[5]; TNF-α + 25 μM ligustilide,25 ± 6 arbitrary units
same,% reduction of expression (ICAM-1 mRNA),[5]; TNF-α + 50 μM ligustilide,73%
same,Relative ICAM-1 mRNA level,[5]; TNF-α + 50 μM ligustilide,16 ± 1 arbitrary units
same,"Gene expression (in %) relative to LPS control, IL-1α",[6],15.2%
same,"Gene expression (in %) relative to LPS control, TNF-α",[7],50.6%
same,"Gene expression (in %) relative to LPS control, COX-2",[8],24.1%
same,"Gene expression (in %) relative to LPS control, MIP-2",[9],52.0%
same,"Gene expression (in %) relative to LPS control, IL-6",[10],52.3%
same,"Gene expression (in %) relative to LPS control, MIP-3α",[11],67.2%
same,"Gene expression (in %) relative to LPS control, IL-8",[12],72.4%
same,"Gene expression (in %) relative to IL-1β activated chondrocytes, Collagen 1",[13],115%
same,"Gene expression (in %) relative to IL-1β activated chondrocytes, MMP-13",[14],50%
same,"Gene expression (in %) relative to IL-1β activated chondrocytes, Collagen 2",[15],184%
same,"Gene expression (in %) relative to IL-1β activated chondrocytes, MMP-3",[16],2%
same,"Gene expression (in %) relative to IL-1β activated chondrocytes, MMP-9",[17],33%
same,"Gene expression (in %) relative to IL-1β activated chondrocytes, MMP-1",[18],17%
same,IC50,[1]; [20],3.2 µM
same,% Inhibition of paw edema volume vs vehicle-treated group,[19]; 1.5 h after carrageenan,29%
same,Paw edema volume,[19]; 1.5 h after carrageenan,0.17 mL
same,% Inhibition of paw edema volume vs vehicle-treated group,[19]; 3 h after carrageenan,27%
same,Paw edema volume,[19]; 3 h after carrageenan,0.32 mL
same,% Inhibition of paw edema volume vs vehicle-treated group,[19]; 4.5 h after carrageenan,11%
same,Paw edema volume,[19]; 4.5 h after carrageenan,0.40 mL
"CCC/C=C1\OC(=O)c2ccccc21 [N-Butylidenephthalide, E + Z-3-Butylidenephthalide]",IC50,"[1]; RAW264.7, 24 h",3 µM

# Reference: patent US20090176873A1, “NOVEL USE OF ORGANIC COMPOUNDS” (DSM IP ASSETS B.V., priority 2005, published 2009)
